{"source": "patent US9416181B2", "about": "“Compositions for cell culture and methods of using the same” (AbbVie Inc., priority 2013, dated 2016)", "format_in_all_cases": "cell-based, Chinese Hamster", "key": {"[1]": {"test_system": "Cell Line 1 (CHO) expressing Antibody 1", "assay": "Acidic species variants (WCX-10) of Antibody 1, Cell Line 1 3 L bioreactor fed-batch culture", "conditions": "for drop in absolute acidic species percentage points: 3 L bioreactor; for drop in absolute acidic species percentage points / relative total AR (ratio to Day 8 value of unsupplemented control): Day 15 harvest", "protocol": "A recombinant Chinese Hamster Ovary (CHO) cell line (Cell Line 1) expressing a humanized monoclonal antibody (Antibody 1) was evaluated in 2 different cultures vessels (shaker flasks and 3 L laboratory-scale bioreactors). The cell line was of CHO DUX-B11 origin based on a DHFR (dihydrofolate reductase) expression system and cultured in a chemically defined basal media, and fed periodically with a chemically-defined feed media (CDFM). The media utilized throughout all of the experiments were chemically-defined, and both animal-component free, and protein-free. Each of the respective media were supplemented as needed with selected bioflavonoids to evaluate for their potential impact on the resulting acidic species profile. In preparation of the cultures, the cell lines were serially expanded through separate seed train inoculums to generate enough cells for inoculation. Process conditions utilized during the cultures were slightly different depending on the culture scale, but similar within each scale to the respective non-bioflavonoid supplemented control conditions. All bioflavonoids utilized were purchased from Sigma-Aldrich (St. Louis, Mo.).\nSamples were analyzed using an HPLC system equipped with a ProPac WCX-10 analytical column (Thermo Scientific, Sunnyvale, Calif.). Approximately 100 μg of sample was loaded in 6% Buffer B (10 mM sodium phosphate, 500 mM NaCl, pH 5.5) and 94% Buffer A (10 mM sodium phosphate, pH 7.5). The column was run at a flow rate of 1.0 mL/min. The protein was eluted from the column by increasing the buffer B composition from 6% to 16% over 20 minutes. The protein peaks were measured using UV absorbance at 280 nm as the peaks eluted from the column. The column was regenerated using 100% buffer B followed be a re-equilibration period using initial condition before the injection of the next sample. Peaks eluting before the main peak were termed “acidic peaks” and peaks eluting after the main peak were called “basic peaks” (FIG. 2).\nIn the next experiment, lab-scale bioreactors were used to (1) confirm the shaker experiment results and (2) to determine whether higher concentration range of EGCG is suitable for supplementing into cell culture. EGCG was added to the feed of the batch culture at the concentrations of 20 mg/L (mid), 50 mg/L (high) and 125 mg/L (high+) and 250 mg/L (high++) in this reactor experiment.\nCell Line 1 was evaluated in larger-scale feed batch cultures with the feed media supplemented with various bioflavonoids. […] By contrast, cell growth performance was slightly different for the 0.1 g/L EGCG supplemented condition. […] However, the cell viability remained high at 0.1 g/L EGCG. All cultures were successfully harvested on Day 15 post-inoculation. The harvest titers measured from the evaluated cultures were similar.\nCell Line 1 was also evaluated in laboratory-scale fedbatch cultures with the feed media supplemented with various bioflavonoids. […] Cell growth performance was slightly different however with the 0.1 g/L EGCG supplemented condition. […] All cultures were able to be successfully harvested on Day 15 post-inoculation."}, "[2]": {"test_system": "Cell Line 2 (CHO) expressing Antibody 2", "assay": "Acidic species variants (WCX-10) of Antibody 2, Cell Line 2 lab-scale bioreactor culture", "conditions": "0.1 g/L", "protocol": "(§1) Four different recombinant Chinese Hamster Ovary (CHO) cell lines expressing four different recombinant glycoproteins were evaluated in either shaker flask culture, or 3 L laboratory scale bioreactors. Cell Line 1 was genetically engineered to express Antibody 1, Cell Line 2 was genetically engineered to express Antibody 2, Cell Line 3 was genetically engineered to express dual variable domain immunoglobulin 1 (DVD1) and Cell Line 4 was genetically engineered to express dual variable domain immunoglobulin 2 (DVD2).\nCharge Heterogeneity via Weak Cation Exchange Chromatography-Samples were analyzed using an HPLC system equipped with a ProPac WCX-10 analytical column (Thermo Scientific, Sunnyvale, Calif.). Approximately 100 μg of sample was loaded in 6% Buffer B (10 mM sodium phosphate, 500 mM NaCl, pH 5.5) and 94% Buffer A (10 mM sodium phosphate, pH 7.5). The column was run at a flow rate of 1.0 mL/min. The protein was eluted from the column by increasing the buffer B composition from 6% to 16% over 20 minutes. The protein peaks were measured using UV absorbance at 280 nm as the peaks eluted from the column. The column was regenerated using 100% buffer B followed be a re-equilibration period using initial condition before the injection of the next sample. […]"}, "[3]": {"test_system": "Cell Line 3 (CHO) expressing DVD1", "assay": "Acidic species variants (WCX-10) of DVD1, Cell Line 3 shake flask culture", "conditions": "shaker", "protocol": "as §1\nCharge Heterogeneity via Weak Cation Exchange Chromatography-Samples were analyzed using an HPLC system equipped with a ProPac WCX-10 analytical column (Thermo Scientific, Sunnyvale, Calif.). Approximately 100 μg of sample was loaded in 6% Buffer B (10 mM sodium phosphate, 500 mM NaCl, pH 5.5) and 94% Buffer A (10 mM sodium phosphate, pH 7.5). The column was run at a flow rate of 1.0 mL/min. The protein was eluted from the column by increasing the buffer B composition from 6% to 16% over 20 minutes. The protein peaks were measured using UV absorbance at 280 nm as the peaks eluted from the column. The column was regenerated using 100% buffer B followed be a re-equilibration period using initial condition before the injection of the next sample. Peaks eluting before the main peak were termed ‘acidic peaks’ and peaks eluting after the main peak were called ‘basic peaks’ (FIG. 2).\nTo assess the impact of EGCG on acidic region variants on recombinant proteins, dual variable domain immunoglobulin 1 (DVD1) was examined. EGCG was added at the concentrations of 0.02 g/L, 0.05 g/L, 0.1 g/L and 0.2 g/L into the feed in a shaker experiment (See Table 2). […] At the concentration of 0.2 g/L, EGCG led to 15% viability decrease and 28% productivity loss compared to control condition. Upon measurement of the acidic species variants, EGCG supplement reduced the total acidic species in a dose-dependent manner. At the concentrations of 0.02 g/L, 0.05 g/L, 0.1 g/L and 0.2 g/L respectively, EGCG reduced the total acidic species content 5%, 10%, 17% and 22% relatively compared to the unsupplemented control (FIG. 13D)."}, "[4]": {"test_system": "recombinant CHO cell lines", "assay": "Harvest titer / productivity summary across bioflavonoid supplemented cultures", "protocol": "as §1\nProtein A Affinity Chromatography-Antibody titers were measured from crude cell culture harvests on a Poros ATM (Life Technologies, Carlsbad, Calif.) affinity column using an HPLC system operating with a low pH, step elution gradient with detection at 280 nm. Absolute concentrations were assigned with respect to reference standard calibration curves."}, "[5]": {"conditions": "50, 125 and 250 mg/L in feed, bioreactor"}}}
{"smiles": "O=C(O[C@@H]1Cc2c(O)cc(O)cc2O[C@@H]1c1cc(O)c(O)c(O)c1)c1cc(O)c(O)c(O)c1", "note": "[EGCG, epigallocatechin gallate]", "values": [{"measurement": "drop in absolute acidic species percentage points", "setting": "[1]; 0.05 g/L in CDFM", "result": 4, "unit": "%"}, {"measurement": "relative total AR (ratio to Day 8 value of unsupplemented control)", "setting": "[1]; 0.05 g/L in CDFM, bioreactor", "result": 1.10}, {"measurement": "drop in absolute acidic species percentage points", "setting": "[1]; 0.1 g/L in CDFM", "result": 10, "unit": "%"}, {"measurement": "relative total AR (ratio to Day 8 value of unsupplemented control)", "setting": "[1]; 0.1 g/L in CDFM, bioreactor", "result": 0.69}, {"measurement": "reduction of total acidic species content, absolute value", "setting": "[1]; [5]", "result": "at least 2%"}, {"measurement": "reduction of total acidic species content, relative value", "setting": "[1]; [5]", "result": "≥ 16", "unit": "%"}, {"measurement": "relative reduction of total acidic variants content vs unsupplemented control", "setting": "[2]", "result": "29%-36%"}, {"measurement": "relative reduction of total acidic species content vs unsupplemented control", "setting": "[3]; 0.02 g/L in feed", "result": 5, "unit": "%"}, {"measurement": "relative reduction of total acidic species content vs unsupplemented control", "setting": "[3]; 0.05 g/L in feed", "result": 10, "unit": "%"}, {"measurement": "relative reduction of total acidic species content vs unsupplemented control", "setting": "[3]; 0.1 g/L in feed", "result": 17, "unit": "%"}, {"measurement": "relative reduction of total acidic species content vs unsupplemented control", "setting": "[3]; 0.2 g/L in feed", "result": 22, "unit": "%"}, {"measurement": "drop in harvest titer", "setting": "[4]; concentrations up to 0.1 g/L, supplemented cultures overall", "result": "at most 8%"}, {"measurement": "recombinant protein productivity", "setting": "[4]; supplementation up to 0.2 g/L", "result": "only nominally impacted"}]}
